For nine compounds, IC50 results are on record in ChEMBL document CHEMBL1146804, “Estrogen receptor ligands. Part 6: Synthesis and binding affinity of dihydrobenzodithiins” (Bioorg Med Chem Lett, 2004).

In assay [1] the test system is MCF7. Kind of assay: Inhibition of MCF-7 cancer cell proliferation; Average of 7 measurements. The format is functional, cell-based. Particulars: Homo sapiens.
A further assay addresses Estrogen receptor beta (Homo sapiens, UniProt Q92731).
For another assay, the target named is T1, Estrogen receptor (Homo sapiens, UniProt P03372).
T1 sequence (P03372 whole entry): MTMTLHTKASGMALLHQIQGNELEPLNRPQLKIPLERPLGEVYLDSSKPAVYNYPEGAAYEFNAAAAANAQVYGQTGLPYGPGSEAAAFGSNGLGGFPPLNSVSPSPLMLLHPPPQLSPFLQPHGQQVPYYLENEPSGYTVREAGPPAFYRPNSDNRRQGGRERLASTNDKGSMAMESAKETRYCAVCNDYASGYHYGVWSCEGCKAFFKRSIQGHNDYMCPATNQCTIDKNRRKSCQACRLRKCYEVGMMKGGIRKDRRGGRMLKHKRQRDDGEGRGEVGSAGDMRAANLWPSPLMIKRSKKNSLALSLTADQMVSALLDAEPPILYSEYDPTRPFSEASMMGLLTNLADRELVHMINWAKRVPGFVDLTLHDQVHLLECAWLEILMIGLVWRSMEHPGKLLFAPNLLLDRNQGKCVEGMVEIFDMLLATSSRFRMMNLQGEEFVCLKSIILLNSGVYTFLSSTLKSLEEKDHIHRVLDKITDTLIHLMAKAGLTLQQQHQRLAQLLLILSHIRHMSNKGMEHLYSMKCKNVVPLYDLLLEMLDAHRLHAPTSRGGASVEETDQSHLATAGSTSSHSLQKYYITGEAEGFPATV

Assay [2] concerns MCF7. Kind of assay: Inhibition of MCF-7 cancer cell proliferation. The format is functional, cell-based. Particulars: Homo sapiens.
Assay [3] concerns MCF7. Kind of assay: Inhibition of MCF-7 cancer cell proliferation; Average of 5 measurements. The format is functional, cell-based. Particulars: Homo sapiens.
Assay [4] relates to MCF7. Kind of assay: Inhibition of MCF-7 cancer cell proliferation; Average of 2 measurements. The assay is classed as functional, cell-based. Particulars: Homo sapiens.

Sequence of Estrogen receptor beta (Q92731 whole entry): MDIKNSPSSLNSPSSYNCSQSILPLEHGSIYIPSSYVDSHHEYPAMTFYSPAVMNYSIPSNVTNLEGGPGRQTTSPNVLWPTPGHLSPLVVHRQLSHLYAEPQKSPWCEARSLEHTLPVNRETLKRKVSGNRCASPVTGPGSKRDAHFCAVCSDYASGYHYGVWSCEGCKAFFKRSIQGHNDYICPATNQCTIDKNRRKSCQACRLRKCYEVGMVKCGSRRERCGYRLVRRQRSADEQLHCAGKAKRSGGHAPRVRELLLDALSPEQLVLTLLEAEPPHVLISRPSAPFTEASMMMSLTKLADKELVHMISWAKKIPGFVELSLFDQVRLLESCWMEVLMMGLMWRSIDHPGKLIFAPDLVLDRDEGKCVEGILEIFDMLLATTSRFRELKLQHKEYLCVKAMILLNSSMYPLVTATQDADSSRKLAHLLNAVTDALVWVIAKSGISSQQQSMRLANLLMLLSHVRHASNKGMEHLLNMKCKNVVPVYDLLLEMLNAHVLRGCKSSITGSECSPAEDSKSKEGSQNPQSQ
Description for Estrogen receptor beta: Binding affinity for human estrogen receptor beta

`Oc1ccc([C@H]2Sc3cc(O)ccc3O[C@H]2c2ccc(OCCN3CCCCC3)cc2)cc1`: in the assay with MCF7 [1], inhibition was half-maximal at 3 nM (IC50).

As to `Oc1ccc([C@H]2Sc3cc(O)ccc3S[C@H]2c2ccc(OCCN3CCCC3)cc2)cc1`, the IC50 against Estrogen receptor beta came to 266 nM; on Estrogen receptor, 18 nM; in the assay with MCF7 [2] it was 123 nM.

As for `Oc1cccc([C@H]2Sc3cc(O)ccc3O[C@H]2c2ccc(OCCN3CCCC3)cc2)c1`, the values for the half-maximal inhibitory concentration (IC50) against Estrogen receptor beta, against Estrogen receptor and in the assay on MCF7 [3] were 38 nM, 1 nM and 0.6 nM, respectively.

Consider `Oc1ccc([C@H]2Sc3cc(O)ccc3S[C@H]2c2ccc(OCCN3CCCCC3)c(Br)c2)cc1`, for which the figures for the half-inhibitory concentration (IC50) against Estrogen receptor beta, at Estrogen receptor and in the assay on MCF7 [2] were 111 nM, 5 nM and 67 nM, respectively.

Regarding `Oc1cccc([C@H]2Sc3cc(O)ccc3S[C@H]2c2ccc(OCCN3CCCCC3)cc2)c1`, the IC50 against Estrogen receptor beta came out at 583 nM; against Estrogen receptor, 15 nM; with MCF7 [2] it was 564 nM.

Consider `Oc1cccc([C@H]2Sc3cc(O)ccc3S[C@H]2c2ccc(OCCN3CCCCC3)c(Br)c2)c1`, for which the IC50 is 161 nM against Estrogen receptor beta, 4 nM against Estrogen receptor and 152 nM in the assay on MCF7 [2].

Take `Oc1cccc([C@H]2Sc3cc(O)ccc3O[C@H]2c2ccc(OCCN3CCCCC3)cc2)c1`: the IC50 against Estrogen receptor was 4 nM; in the assay on MCF7 [4] it was 0.4 nM.

With `Oc1ccc([C@H]2Sc3cc(O)ccc3S[C@H]2c2ccc(OCCN3CCCC3)c(Br)c2)cc1`, the IC50 against Estrogen receptor beta was 87 nM; at Estrogen receptor, 4 nM; in the assay on MCF7 [2], 114 nM.

For `Oc1ccc([C@H]2Sc3cc(O)ccc3S[C@H]2c2ccc(OCCN3CCCCC3)cc2)cc1`, the IC50 was 326 nM against Estrogen receptor beta, 21 nM against Estrogen receptor and 112 nM with MCF7 [2].

One may read the IC50 as the point on the concentration scale where inhibition reaches its midpoint. Read a high IC50 as weaker potency in that assay.
